Test results reported in the supplement of paper PMC10307832.

Tests used:
Test in all cases: relative viability (nuclei count vs DMSO), 5 days (fraction); higher = more cells survive
Irinotecan + Foretinib = compound: CCc1c2c(nc3ccc(OC(=O)N4CCC(N5CCCCC5)CC4)cc13)-c1cc3c(c(=O)n1C2)COC(=O)[C@]3(O)CC [Irinotecan] + COc1cc2c(Oc3ccc(NC(=O)C4(C(=O)Nc5ccc(F)cc5)CC4)cc3F)ccnc2cc1OCCCN1CCOCC1 [Foretinib] (partner 0.25 µM)
How it was run: (§1)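 Nuclei were stained with Hoechst during a one-step fixation (final 0.05% Triton X-100, 1% formaldehyde, 1 ug/ml Hoechst) carried out 5 days after dosing, then counted on 4× images. The cells, lung cancer lines in 1536-well plates, had been dosed by pin tool the day after seeding with one drug alone or a fixed anchor-drug dose plus five library-drug doses (not always all listed) in √10 steps. Relative viability is the nuclei count in treated wells divided by that in vehicle wells, and each value is the median of duplicate plates.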

RU-SKI 43 + Tozasertib = compound: CC[C@@H](C)CNCC(=O)N1CCC2=C([C@@H]1COC3=CC=CC(=C3)C)C=CS2 [RU-SKI 43] + Cc1cc(Nc2cc(N3CCN(C)CC3)nc(Sc3ccc(NC(=O)C4CC4)cc3)n2)n[nH]1 [Tozasertib] (partner 0.1 µM)
How it was run: as §1

Irinotecan + Palbociclib = compound: CCc1c2c(nc3ccc(OC(=O)N4CCC(N5CCCCC5)CC4)cc13)-c1cc3c(c(=O)n1C2)COC(=O)[C@]3(O)CC [Irinotecan] + CC(=O)c1c(C)c2cnc(Nc3ccc(N4CCNCC4)cn3)nc2n(C2CCCC2)c1=O [Palbociclib] (partner 0.5 µM)
How it was run: as §1

Irinotecan + Pemetrexed = compound: CCc1c2c(nc3ccc(OC(=O)N4CCC(N5CCCCC5)CC4)cc13)-c1cc3c(c(=O)n1C2)COC(=O)[C@]3(O)CC [Irinotecan] + Nc1nc2[nH]cc(CCc3ccc(C(=O)N[C@@H](CCC(=O)O)C(=O)O)cc3)c2c(=O)[nH]1 [Pemetrexed] (partner 0.2 µM)
How it was run: as §1

## UMC-11
Irinotecan + Foretinib; first compound 0.6325 µM
  relative viability: 0.704
Irinotecan + Foretinib; first compound 2 µM
  relative viability: 0.518
Irinotecan + Foretinib; first compound 6.325 µM
  relative viability: 0.337
Irinotecan + Foretinib; first compound 20 µM
  relative viability: 0.237
RU-SKI 43 + Tozasertib; first compound 0.1 µM
  relative viability: 0.204
RU-SKI 43 + Tozasertib; first compound 0.3162 µM
  relative viability: 0.197
RU-SKI 43 + Tozasertib; first compound 1 µM
  relative viability: 0.19
RU-SKI 43 + Tozasertib; first compound 3.162 µM
  relative viability: 0.175
RU-SKI 43 + Tozasertib; first compound 10 µM
  relative viability: 0.18
Irinotecan + Palbociclib; first compound 0.6325 µM
  relative viability: 0.343
Irinotecan + Palbociclib; first compound 2 µM
  relative viability: 0.336
Irinotecan + Palbociclib; first compound 6.325 µM
  relative viability: 0.267
Irinotecan + Palbociclib; first compound 20 µM
  relative viability: 0.186
Irinotecan + Pemetrexed; first compound 0.6325 µM
  relative viability: 0.46
Irinotecan + Pemetrexed; first compound 2 µM
  relative viability: 0.436
Irinotecan + Pemetrexed; first compound 6.325 µM
  relative viability: 0.288
Irinotecan + Pemetrexed; first compound 20 µM
  relative viability: 0.228
